In patent publication US12370143B2, “Compound or salt thereof and lipid particles” (FUJIFILM Corporation, priority 2018, dated 2025):

Assays:
[1] = Particle size of nucleic acid lipid particles (Luc2-siRNA); assay type: physicochemical; details: compound/DSPC/cholesterol/DMG-PEG2000 50/10/38.5/1.5
Procedure: By using the dispersion liquid of lipid particles as it was, the particle size of the lipid particles was measured using a zeta potential/particle size measurement system ELS-Z2 (Otsuka Electronics Co., Ltd.).
(§1) The compounds described in Table 2, L-α-distearoylphosphatidylcholine (trade name: COATSOME® MC-8080; NOF corporation), cholesterol (trade name: Choesterol HP; NIPPON FINE CHEMICAL CO., LTD.), and 1,2-dimyristoyl-rac-glycero-3-(methylpolyoxyethylene 2000) (hereinafter, called DMG-PEG2000) (trade name: SUNBRIGHT® GM-020; NOF corporation) were dissolved in ethanol at a molar ratio of 50/10/38.5/1.5 such that the total lipid concentration became 20 mmol/L, thereby obtaining an oil phase.
(§2) An aqueous nucleic acid solution obtained by dissolving 5 mg of Luc2-siRNA having the sequence described in Biomacromolecules (2013) 14, p. 3905 in 1 mL of sterile water was diluted with 10 mmol/L acetate buffer having a pH 4 such that the nucleic acid concentration became 19.7 μmol/L, thereby obtaining a water phase. Then, the water phase and the oil phase were mixed together by a micromixer (see JP5288254B) using a syringe pump such that the volume ratio of water phase:oil phase became 3:1 (final ratio of siRNA/lipid=339 (mol/mol)), and the mixed solution was diluted 2× with PBS, thereby obtaining a dispersion liquid of nucleic acid lipid particles. The dispersion liquid was dialyzed (Slide-A-Lyzer G2, MWCO: 10 kD, Thermo Fisher Scientific) using a phosphate buffered saline such that ethanol was removed, thereby obtaining nucleic acid lipid particles.
The particle size of the nucleic acid lipid particles was measured by the same method as that in <Preparation of lipid particles>.

[2] = Encapsulation rate of siRNA in nucleic acid lipid particles (Luc2-siRNA); assay type: physicochemical; details: compound/DSPC/cholesterol/DMG-PEG2000 50/10/38.5/1.5
Procedure: as §1, §2
A 3 mol/L aqueous sodium acetate solution (30 μL) and 9 μL of glycogen were added to 60 μL of the lipid particles retaining nucleic acids, and then 1.5 mL of ethanol was added thereto such that only the nucleic acids were precipitated while the lipid was dissolved. Then, the supernatant was removed by centrifugation. After the precipitates were air-dried for 15 minutes or longer, water was added thereto such that the precipitates were redissolved, and the concentration thereof was measured using Nanodrop NF1000 (Thermo Fisher Scientific), thereby quantifying the total nucleic acid concentration.
The nucleic acid concentration was quantified using a Quant-iT RiboGreen RNA Assay Kit (Thermo Fisher Scientific) according to the protocol. First, a 20×TE buffer included in the above kit was diluted with water, thereby obtaining a 1×TE buffer. TE represents Tris/EDTA (ethylenediaminetetraacetic acid). In order to quantify only the nucleic acid in the outer water phase, the dispersion liquid of lipid particles retaining nucleic acids was diluted 10,000× with the 1×TE buffer.
The 10,000× diluted dispersion liquid of lipid particles (100 μL) was put in a 96-well plate, then 100 μL of a RiboGreen reagent (reagent included in the Quanti-iT Ribogreen RNA Assay Kit described above) diluted 2000× with the 1×TE buffer was added to a sample, and fluorescence (excitation wavelength: 485 nm, fluorescence wavelength: 535 nm) was measured using a plate reader Infinit EF200 (TECAN), thereby quantifying the nucleic acid concentration in the outer water phase.
By using the total nucleic acid concentration obtained through the above steps and the quantified nucleic acid concentration in the outer water phase, the nucleic acid encapsulation rate of the nucleic acid lipid particles was calculated according to the following Equation. Nucleic acid encapsulation rate (%)=(total nucleic acid concentration−nucleic acid concentration in outer water phase)/total nucleic acid concentration×100 The results are shown in Table 2.

[3] = tested on: DMS273 cells constantly expressing Luc; assay: Target reporter protein (Luc) knockdown in cell, reporter protein assay; assay type: cell-based; details: Homo sapiens, DMS-273; Luc2-siRNA lipid particles using the compound; siRNA 0.1 to 100 nmol/L; concentration at which Luc expression is knocked down to 50%; read-out: IC50
Procedure: The nucleic acid lipid particles prepared by the same method as that in <Preparation of nucleic acid lipid particles> by using the compounds described in Table 3 were evaluated by reporter assay by the following method.
By using pGL4.50 Luc2 (E1310 Promega), DMS273 cells (human small cell lung cancer) (European Collection of Authenticated Cell Cultures) constantly expressing Luc were prepared. RPMI (Gibco) (10% FBS (Gibco), 1% Penicillin-Streptomycin (Gibco), and 200 μg/mL Hygromycin (Wako)) was used as a culture medium. DMS273 cells (2.0×10^3) constantly expressing luciferase (Luc) were seeded in a 96-well plate and cultured in a 5% CO2 incubator for 24 hours, and then the medium was replaced. Then, 10 μL of each of the dispersion liquids of lipid particles diluted with PBS (Gibco) to yield a concentration of 1 to 1,000 nmol/L was added to the 96-well plate, and the final concentration was adjusted to 0.1 to 100 nmol/L (total amount of liquid: 110 μl). Thereafter, the cells were cultured in a 5% CO2 incubator for 24 hours, the medium was then replaced, and the cells were further cultured for 24 hours.
After the viable cell count was determined, the expression amount of Luc was quantified using a Steady Glo assay kit (Promega), and the knockdown efficiency was calculated according to the following equation. Then, the IC50 concentration at which the expression amount of Luc was knocked down to 50% was calculated.

| Particle size (nm) [1] [nm] | Nucleic acid encapsulation rate [2] [%] | IC50 [3] [nM] | Compound |
| --- | --- | --- | --- |
| 81 | 79 | 30 | CCCCCCC(CCCC)COC(=O)CCCCCCCCC(CCCCCC)OC(=O)OCCN(CCN(CC)CC)C(C)C (stereo not drawn) [Example 84, 2-butyloctyl 3-ethyl-12-hexyl-6-isopropyl-10-oxo-9,11-dioxa-3,6-diazahenicosan-21-oate] |
| 177.3 | 68 | 39 | CCCCCCC(CCCC)COC(=O)CCCC(CCCCCC)OC(=O)OCCN(CCO)CCN(CC)CC (stereo not drawn) [Example 101, 2-Butyloctyl 3-ethyl-12-hexyl-6-(2-hydroxyethyl)-10-oxo-9,11-dioxa-3,6-diazahexadecan-16-oate] |
| 147.2 | 70 | 27 | CCCCCCCCC(CCCCCC)COC(=O)CCCC(CCCCCC)OC(=O)OCCN(CCO)CCN(CC)CC (stereo not drawn) [Example 102, 2-Hexyldecyl 3-ethyl-12-hexyl-6-(2-hydroxyethyl)-10-oxo-9,11-dioxa-3,6-diazahexadecan-16-oate] |
| 76.3 | 73 | 25 | CCCCCCCCC(CCCCCC)COC(=O)CCCCCC(CCCCCC)OC(=O)OCCN(CCN(CC)CC)C(C)C (stereo not drawn) [Example 116, 2-Hexyldecyl 3-ethyl-12-hexyl-6-isopropyl-10-oxo-9,11-dioxa-3,6-diazaoctadecan-18-oate] |
| 69.6 | 81 | 47 | CCCCC/C=C\C/C=C\CCCCCCCCC(CCCCCCCC/C=C\C/C=C\CCCCC)OC(=O)CCCN(C)C [Reference Example 1, (6Z,9Z,28Z,31Z)-heptatriaconta-6,9,28,31-tetraen-19-yl-4-(dimethylamino)butanoate, reference compound] |
| 118.4 | 85 | 59 | CCCCC/C=C\C/C=C\CCCCCCCCN(CCCCCCCC/C=C\C/C=C\CCCCC)C(=O)OCC1CCCN(C)C1 (stereo not drawn) [Reference Example 2, (1-Methylpiperidin-3-yl)methyl di((9Z,12Z)-octadeca-9,12-dien-1-yl)carbamate, reference compound] |

Continued, molecule first:

| Compound | Particle size (nm) [1] [nm] | Nucleic acid encapsulation rate [2] [%] | IC50 [3] [nM] |
| --- | --- | --- | --- |
| CCCCC/C=C\C/C=C\CCCCCCCCN(CCCCCCCC/C=C\C/C=C\CCCCC)C(=O)OCCN1CCN(C)CC1 [Comparative Example 5, 2-(4-Methylpiperazin-1-yl)ethyl di((9Z,12Z)-octadeca-9,12-dien-1-yl)carbamate, reference compound] | 75.1 | 87 | > 100 |
| CCCCC/C=C\C/C=C\CCCCCCCCN(CCCCCCCC/C=C\C/C=C\CCCCC)C(=O)CN(C)CCN(C)C [Comparative Example 6, 2-((2-(dimethylamino)ethyl)(methyl)amino)-N,N-di((9Z,12Z)-octadeca-9,12-dien-1-yl)acetamide, reference compound] | 81.9 | 89 | > 100 |
| CCCCC/C=C\C/C=C\CCCCCCCCN(CCCCCCCC/C=C\C/C=C\CCCCC)C(=O)CCN(C)CCN(C)C [Comparative Example 7, 3-((2-(dimethylamino)ethyl)(methyl)amino)-N,N-di((9Z,12Z)-octadeca-9,12-dien-1-yl)propanamide, reference compound] | 71.9 | 87 | > 100 |
| CCCCC/C=C\C/C=C\CCCCCCCCN(CCCCCCCC/C=C\C/C=C\CCCCC)C(=O)OC1CCN(CCN(C)C)CC1 [Example 3, 1-(2-(Dimethylamino)ethyl)piperidin-4-yl di((9Z,12Z)-octadeca-9,12-dien-1-yl)carbamate] | 83.6 | 100 | 43 |
| CCCCC/C=C\C/C=C\CCCCCCCCN(CCCCCCCC/C=C\C/C=C\CCCCC)C(=O)OC1CCCN(CCN(C)C)C1 (stereo not drawn) [Example 4, 1-(2-(Dimethylamino)ethyl)piperidin-3-yl di((9Z,12Z)-octadeca-9,12-dien-1-yl)carbamate] | 66.1 | 81 | 10 |
| CCCCC/C=C\C/C=C\CCCCCCCCN(CCCCCCCC/C=C\C/C=C\CCCCC)C(=O)OCCN(C)CCN(CC)CC [Example 7, 2-((2-(Diethylamino)ethyl)(methyl)amino)ethyl di((9Z,12Z)-octadeca-9,12-dien-1-yl)carbamate] | 98.6 | 84 | 14 |
| CCCCC/C=C\C/C=C\CCCCCCCCC(CCCCCCCC/C=C\C/C=C\CCCCC)OC(=O)OCCN(C)CCN(C)C [Example 20, 2-((2-(dimethylamino)ethyl)(methyl)amino)ethyl((6Z,9Z,28Z,31Z)-heptatriaconta-6,9,28,31-tetraen-19-yl)carbonate] | 101.6 | 84 | 15 |
| CCCCC/C=C\C/C=C\CCCCCCCCC(CCCCCCCC/C=C\C/C=C\CCCCC)OC(=O)OCCN(CCN(C)C)C(C)C [Example 25, 2-((2-(Dimethylamino)ethyl)(isopropyl)amino)ethyl((6Z,9Z,28Z,31Z)-heptatriaconta-6,9,28,31-tetraen-19-yl)carbonate] | 68.5 | 76 | 16 |
| CCCCC/C=C\C/C=C\CCCCCCCCC(CCCCCCCC/C=C\C/C=C\CCCCC)OC(=O)OCCN(C)CCN [Example 26] | 209.8 | 97 | 30 |
| CCCCC/C=C\C/C=C\CCCCCCCCC(CCCCCCCC/C=C\C/C=C\CCCCC)OC(=O)OCCN(C)CCN(C)CCO [Example 27, (6Z,9Z,28Z,31Z)-heptatriaconta-6,9,28,31-tetraen-19-yl(2-((2-((2-hydroxyethyl)(methyl)amino)ethyl)(methyl)amino)ethyl)carbonate] | 75.2 | 75 | 31 |
| CCCCC/C=C\C/C=C\CCCCCCCC(CCCCCCCCCC)OC(=O)OCCN(C)CCN(C)C (stereo not drawn) [Example 29, 2-((2-(Dimethylamino)ethyl)(methyl)amino)ethyl((19Z,22Z)-octacosa-19,22-dien-11-yl)carbonate] | 70.1 | 77 | 19 |
| CCCCC/C=C\C/C=C\CCCCCCCC(CCCCCCCCCC)OC(=O)OCCN(CC)CCN(C)C (stereo not drawn) [Example 33, 2-((2-(Dimethylamino)ethyl)(ethyl)amino)ethyl((19Z,22Z)-octacosa-19,22-dien-11-yl)carbonate] | 67.9 | 87 | 12 |
| CCCCC/C=C\C/C=C\CCCCCCCCC(CCCCCCCC/C=C\C/C=C\CCCCC)OC(=O)OCCN(CCCCCCCCCCCC)CCN(C)C [Example 53] | 81 | 78 | 9 |
